Source: patent US20100190815A1, “HYPERTENSION-AMELIORATING AGENT” (KYOWA HAKKO BIO CO., LTD., priority 2006, published 2010)

System: spontaneously hypertensive rats (SHRs)
Assay: Systolic blood pressure by the tail-cuff method in spontaneously hypertensive rats, oral administration once daily for 29 days
Type: in vivo, rat
Settings: for Systolic blood pressure compared with the 1st (vehicle) group: 5 mg/kg (2nd group), from Day 8 to the end of the test period; for Systolic blood pressure: male SHR/Izm rats, mean ± standard error, n=6
Procedure: The rats used were spontaneously hypertensive rats (SHRs). The systolic blood pressure levels of 18 male SHR/Izm rats (10 week olds; Japan SLC, Inc.) were measured on Day 1 of administration. The rats were divided into 3 groups of 6 rats in a manner such that the mean values of the groups were almost equivalent to one another. The groups were referred to as the 1st to the 3rd groups. A 0.5 w/v % methylcellulose aqueous solution was orally administered to the rats in the 1st group. A 0.5 w/v % methylcellulose aqueous solution containing pyrroloquinoline quinone disodium salt (hereinafter, referred to as PQQ disodium salt; Mitsubishi Gas Chemical Company, Inc.) suspended therein (1 mg/mL) was orally administered to the rats in the 2nd group. A 0.5 w/v % methylcellulose aqueous solution containing PQQ disodium salt suspended therein (4 mg/mL) was orally administered to the rats in the 3rd group. Oral administration was carried out in a volume of 5 mL/kg once daily for 29 days. The single dose of PQQ disodium salt was 5 mg/kg in the 2nd group and the same was 20 mg/kg in the 3rd group. On Days 1, 8, 15, 22, and 29 of administration, systolic blood pressure was measured before administration (24 hours after administration on the previous day) and 4 hours after administration of the PQQ disodium salt. Systolic blood pressure was measured by the tail-cuff method with the use of an unheated non-invasive blood pressure monitor for mice and rats (MK-2000, Muromachi Kikai Co., Ltd.). Measurement was carried out 5 times per instance. The mean value of three systolic blood pressure values obtained by excluding the highest value and the lowest value was determined to be the value for an individual rat. The value for each group was expressed as the mean value±standard error (n=6). A statistically significant difference was obtained at each measurement point by carrying out one-way analysis of variance. When the significance was confirmed by one-way analysis of variance, a parametric Dunnett's multiple comparison test was carried so that a significant difference between the 2nd and the 1st group and between the 3rd group and the 1st group were obtained. In addition, in a case in which there was a significance level (p value) of less than 0.05, it was determined that there was a significant difference.

O=C(O)c1cc(C(=O)O)c2c(n1)C(=O)C(=O)c1cc(C(=O)O)[nH]c1-2.[Na].[Na] [PQQ disodium salt, pyrroloquinoline quinone disodium salt]
Systolic blood pressure compared with the 1st (vehicle) group (4 hours after administration): lower than that for the 1st group | Systolic blood pressure compared with the 1st (vehicle) group (before administration): lower than that for the 1st group | Systolic blood pressure compared with the 2nd (5 mg/kg) group (20 mg/kg (3rd group), 4 hours after administration): lower than that for the 2nd group | Systolic blood pressure compared with the 1st (vehicle) group, significance (20 mg/kg (3rd group), 4 hours after administration on Day 29, Dunnett's test, p < 0.05): significantly lower than that for the 1st group | Systolic blood pressure compared with the 2nd (5 mg/kg) group (20 mg/kg (3rd group), before administration): lower than that for the 2nd group | Hypertension-ameliorating effect in hypertension rats (overall conclusion) (SHR rats, 5 and 20 mg/kg oral once daily for 29 days): blood pressure-reducing effects, namely, hypertension-ameliorating effects, were observed | Systolic blood pressure (5 mg/kg oral once daily (2nd group), Day 1, 4 hours after administration): 172 ± 4 mmHg | Systolic blood pressure (5 mg/kg oral once daily (2nd group), Day 1, before administration (baseline)): 172 ± 3 mmHg | Systolic blood pressure (5 mg/kg oral once daily (2nd group), Day 8, 4 hours after administration): 175 ± 3 mmHg | Systolic blood pressure (5 mg/kg oral once daily (2nd group), Day 8, before administration (24 hours after previous dose)): 177 ± 3 mmHg | Systolic blood pressure (5 mg/kg oral once daily (2nd group), Day 15, 4 hours after administration): 184 ± 3 mmHg | Systolic blood pressure (5 mg/kg oral once daily (2nd group), Day 15, before administration (24 hours after previous dose)): 185 ± 3 mmHg | Systolic blood pressure (5 mg/kg oral once daily (2nd group), Day 22, 4 hours after administration): 189 ± 3 mmHg | Systolic blood pressure (5 mg/kg oral once daily (2nd group), Day 22, before administration (24 hours after previous dose)): 189 ± 3 mmHg | Systolic blood pressure (5 mg/kg oral once daily (2nd group), Day 29, 4 hours after administration): 190 ± 1 mmHg | Systolic blood pressure (5 mg/kg oral once daily (2nd group), Day 29, before administration (24 hours after previous dose)): 190 ± 1 mmHg | Systolic blood pressure (20 mg/kg oral once daily (3rd group), Day 1, 4 hours after administration): 171 ± 3 mmHg | Systolic blood pressure (20 mg/kg oral once daily (3rd group), Day 1, before administration (baseline)): 172 ± 3 mmHg | Systolic blood pressure (20 mg/kg oral once daily (3rd group), Day 8, 4 hours after administration): 171 ± 2 mmHg | Systolic blood pressure (20 mg/kg oral once daily (3rd group), Day 8, before administration (24 hours after previous dose)): 174 ± 2 mmHg | Systolic blood pressure (20 mg/kg oral once daily (3rd group), Day 15, 4 hours after administration): 180 ± 3 mmHg | Systolic blood pressure (20 mg/kg oral once daily (3rd group), Day 15, before administration (24 hours after previous dose)): 182 ± 3 mmHg | Systolic blood pressure (20 mg/kg oral once daily (3rd group), Day 22, 4 hours after administration): 184 ± 3 mmHg | Systolic blood pressure (20 mg/kg oral once daily (3rd group), Day 22, before administration (24 hours after previous dose)): 184 ± 3 mmHg | Systolic blood pressure (20 mg/kg oral once daily (3rd group), Day 29, 4 hours after administration, p < 0.05 relative to the 1st (vehicle) group): 184 ± 3 mmHg | Systolic blood pressure (20 mg/kg oral once daily (3rd group), Day 29, before administration (24 hours after previous dose)): 186 ± 3 mmHg
